These are literature values, as cited in patent US20100280059A1, “COMPOSITIONS COMPRISING AN ANTIHISTAMINE, A[…] DE[…] EXTENDED RELEASE FORMULATIONS” (Atley Pharmaceuticals, Inc., priority 2009, published 2010).

Assay in data set [1]: not given
The source holds these as a separate data set.

Assay in data set [2]: not given
This is another data set of the same source.

Setting [3] is: single IR oral dose of 10 mg HC, 5 male human subjects.

Molecules are shown by their SMILES. Read-outs that look alike come from different tables or passages of the source.

With `CN(C)CCC(c1ccc(Cl)cc1)c1ccccn1` (stereo not shown) [CPM, chlorpheniramine], under “in vivo”, the “excreted in the feces” value is “Less than 1%” and the “renal elimination as share of total excretion” value is on record as “approximately 50%”. Further, the “excreted in the urine” value (metabolism to monodesmethyl and didesmethyl compounds) is recorded as “up to 26%”.
For the compound `COc1ccc2c3c1O[C@H]1C(=O)CC[C@H]4[C@@H](C2)N(C)CC[C@]314` [HC, hydrocodone], the “share of total excretion occurring in the first 24 hours” value in data set [1] (after a single oral dose) is recorded as “About 70%”. For the same compound, in data set [1] (in vivo), the “elimination half-life of the parent-compound” value was 3.8 to 4.5 h. Moreover, in data set [1] (setting [3]), the Tmax entry is on record as “approximately 1.3±0.3 hours” and the “mean peak serum concentration” value is 23.6 ± 5.2 ng/mL.
Regarding `CN[C@@H](C)[C@@H](O)c1ccccc1` [PSE, pseudoephedrine], the half-life in data set [2] (affected by urinary pH) was 9 to 16 h. Also, the Tmax in data set [2] (following administration) is 1.5 to 2.4 h. In addition, the “dose excreted unchanged in the urine” value in data set [2] (within 24 hours of dosing) is “up to 90%”.
